{"source": "paper PMC12650809", "about": "“Evolving Therapeutic Landscape of ROS1-Positive Non-Small Cell Lung Cancer: An Updated Review” (Current Oncology, 2025)", "origin": "cited, not measured here", "key": {"ROS1-positive NSCLC [1]": {"test_system": "ROS1-positive NSCLC", "conditions": "for TKI-Naive ORR (%) / mPFS (Months): TKI-naïve patients; for IC-ORR (%): TKI-naïve patients evaluable for intracranial ORR"}, "ROS1-positive NSCLC [2]": {"test_system": "ROS1-positive NSCLC", "parameters": "method as in PMID 28520527"}, "ROS1^L2086F": {"test_system": "ROS1^L2086F", "parameters": "method as in PMID 38070596", "conditions": "L2086F, ATP-binding pocket"}, "ROS1-positive NSCLC [3]": {"test_system": "ROS1-positive NSCLC"}, "ROS1^G2032R": {"test_system": "ROS1^G2032R", "parameters": "method as in PMID 38070596", "conditions": "solvent-front substitution"}, "ROS1-positive NSCLC [4]": {"test_system": "ROS1-positive NSCLC", "parameters": "method as in earlier work", "conditions": "WCLC 2025 Abstract 4540; for IC-ORR (%) / TKI-Pretreated ORR (%) / mPFS (Months): TKI-pretreated patients"}, "ROS1-positive NSCLC [5]": {"test_system": "ROS1-positive NSCLC", "remark": "listed apart in the source"}, "[6]": {"test_system": "advanced ROS1-rearranged NSCLC", "parameters": "method as in PMID 38197815"}, "[7]": {"test_system": "ROS1^G2032R and D2033N mutations", "conditions": "preclinical, in vitro"}, "[8]": {"conditions": "eight patients with baseline BMs"}, "[9]": {"conditions": "13 patients harboring ROS1^G2032R"}, "[10]": {"conditions": "previously treated with a ROS1 TKI, n = 113"}, "[11]": {"conditions": "ROS1 TKI-naïve patients, n = 71"}, "[12]": {"conditions": "previously treated with a ROS1-targeted TKI, n = 56"}}, "note": "Read-outs that look alike come from different tables or passages of the source. Marks after values point to notes of the source that are not given here."}
{"smiles": "Cc1cc(Nc2ncc(Cl)c(Nc3ccccc3S(=O)(=O)C(C)C)n2)c(OC(C)C)cc1C1CCNCC1", "note": "[Ceritinib, ceritinib]", "values": [{"measurement": "TKI-Naive ORR (%)", "setting": "ROS1-positive NSCLC [1]", "result": 67, "unit": "%"}, {"measurement": "mPFS (Months)", "setting": "ROS1-positive NSCLC [1]", "result": 19.3, "unit": "Months"}, {"measurement": "IC-ORR (%)", "setting": "ROS1-positive NSCLC [1]", "result": "25 ^b %"}, {"measurement": "dose reductions required", "setting": "ROS1-positive NSCLC [2]", "result": 68, "unit": "%"}, {"measurement": "ORR", "setting": "ROS1-positive NSCLC [2]; 32 patients", "result": 62, "unit": "%"}, {"measurement": "median DOR", "setting": "ROS1-positive NSCLC [2]; 32 patients", "result": 21, "unit": "months"}, {"measurement": "anorexia", "setting": "ROS1-positive NSCLC [2]; AEs, predominantly grade 1–2", "result": 56, "unit": "%"}, {"measurement": "diarrhea", "setting": "ROS1-positive NSCLC [2]; AEs, predominantly grade 1–2", "result": 85, "unit": "%"}, {"measurement": "nausea", "setting": "ROS1-positive NSCLC [2]; AEs, predominantly grade 1–2", "result": 72, "unit": "%"}, {"measurement": "vomiting", "setting": "ROS1-positive NSCLC [2]; AEs, predominantly grade 1–2", "result": 45, "unit": "%"}, {"measurement": "ORR", "setting": "ROS1-positive NSCLC [2]; crizotinib-naïve patients", "result": 67, "unit": "%"}, {"measurement": "median OS", "setting": "ROS1-positive NSCLC [2]; crizotinib-naïve patients", "result": 24, "unit": "months"}, {"measurement": "median PFS", "setting": "ROS1-positive NSCLC [2]; crizotinib-naïve patients", "result": 19.3, "unit": "months"}, {"measurement": "CNS disease control rate", "setting": "ROS1-positive NSCLC [2]; [8]", "result": 63, "unit": "%"}, {"measurement": "patients achieving an objective intracranial response", "setting": "ROS1-positive NSCLC [2]; [8]", "result": "two"}]}
{"smiles": "CCc1nc(C(N)=O)c(Nc2ccc(N3CCC(N4CCN(C)CC4)CC3)c(OC)c2)nc1NC1CCOCC1", "note": "[gilteritinib]", "values": [{"measurement": "resistance or activity with L2086F", "setting": "ROS1^L2086F", "result": "preclinical efficacy"}]}
{"smiles": "C[C@@H](N)COc1ccc(-c2cnc3ccc(N[C@H](C)c4cccc(F)c4)nn23)cc1", "note": "[Taletrectinib, taletrectinib]", "values": [{"measurement": "Notable AEs: QT prolongation", "setting": "ROS1-positive NSCLC [3]", "result": 18, "unit": "%"}, {"measurement": "Notable AEs: diarrhea", "setting": "ROS1-positive NSCLC [3]", "result": 61, "unit": "%"}, {"measurement": "Notable AEs: dizziness", "setting": "ROS1-positive NSCLC [3]", "result": 15, "unit": "%"}, {"measurement": "Notable AEs: increased AST/ALT", "setting": "ROS1-positive NSCLC [3]", "result": 70, "unit": "%"}, {"measurement": "Notable AEs: nausea", "setting": "ROS1-positive NSCLC [3]", "result": 44, "unit": "%"}, {"measurement": "Notable AEs: vomiting", "setting": "ROS1-positive NSCLC [3]", "result": 41, "unit": "%"}, {"measurement": "Main Grade ≥ 3 AEs: QT prolongation", "setting": "ROS1-positive NSCLC [3]; grade ≥ 3", "result": 3, "unit": "%"}, {"measurement": "Main Grade ≥ 3 AEs: anemia", "setting": "ROS1-positive NSCLC [3]; grade ≥ 3", "result": 3, "unit": "%"}, {"measurement": "Main Grade ≥ 3 AEs: diarrhea", "setting": "ROS1-positive NSCLC [3]; grade ≥ 3", "result": 3, "unit": "%"}, {"measurement": "Main Grade ≥ 3 AEs: increased AST/ALT", "setting": "ROS1-positive NSCLC [3]; grade ≥ 3", "result": 9, "unit": "%"}, {"measurement": "Main Grade ≥ 3 AEs: neutropenia", "setting": "ROS1-positive NSCLC [3]; grade ≥ 3", "result": 4, "unit": "%"}, {"measurement": "TKI-Naive ORR (%)", "setting": "ROS1-positive NSCLC [1]", "result": 88.8, "unit": "%"}, {"measurement": "mPFS (Months)", "setting": "ROS1-positive NSCLC [1]", "result": 45.6, "unit": "Months"}, {"measurement": "IC-ORR (%)", "setting": "ROS1-positive NSCLC [1]", "result": "76.5 ^e %"}, {"measurement": "resistance or sensitivity with ROS1^G2032R", "setting": "ROS1^G2032R", "result": "some sensitivity"}, {"measurement": "IC-ORR (%)", "setting": "ROS1-positive NSCLC [4]", "result": 65.6, "unit": "%"}, {"measurement": "TKI-Pretreated ORR (%)", "setting": "ROS1-positive NSCLC [4]", "result": 55.8, "unit": "%"}, {"measurement": "mPFS (Months)", "setting": "ROS1-positive NSCLC [4]", "result": 9.7, "unit": "Months"}, {"measurement": "rate of treatment discontinuation due to toxicity", "setting": "ROS1-positive NSCLC [5]", "result": 6.5, "unit": "%"}, {"measurement": "objective response rate", "setting": "ROS1-positive NSCLC [5]; [9]", "result": 61.5, "unit": "%"}, {"measurement": "patients with objective response (number)", "setting": "ROS1-positive NSCLC [5]; [9]", "result": 8}, {"measurement": "diarrhea", "setting": "ROS1-positive NSCLC [5]; AEs, predominantly grade 1", "result": 61, "unit": "%"}, {"measurement": "nausea", "setting": "ROS1-positive NSCLC [5]; AEs, predominantly grade 1", "result": 44, "unit": "%"}, {"measurement": "transaminase elevation", "setting": "ROS1-positive NSCLC [5]; AEs, predominantly grade 1", "result": 70, "unit": "%"}, {"measurement": "confirmed ORR", "setting": "ROS1-positive NSCLC [5]; TKI-naïve patients, n = 160", "result": 88.8, "unit": "%"}, {"measurement": "median DOR", "setting": "ROS1-positive NSCLC [5]; TKI-naïve patients, n = 160", "result": 44.2, "unit": "months"}, {"measurement": "median PFS", "setting": "ROS1-positive NSCLC [5]; TKI-naïve patients, n = 160", "result": 45.6, "unit": "months"}, {"measurement": "intracranial ORR", "setting": "ROS1-positive NSCLC [5]; TKI-naïve, measurable BMs", "result": 76.5, "unit": "%"}, {"measurement": "median intracranial DOR", "setting": "ROS1-positive NSCLC [5]; TKI-naïve, measurable BMs", "result": 14.7, "unit": "months"}, {"measurement": "dizziness", "setting": "ROS1-positive NSCLC [5]; neurological events", "result": 21, "unit": "%"}, {"measurement": "dysgeusia", "setting": "ROS1-positive NSCLC [5]; neurological events", "result": 15, "unit": "%"}, {"measurement": "intracranial ORR", "setting": "ROS1-positive NSCLC [5]; previously treated with a ROS1 TKI", "result": 65.6, "unit": "%"}, {"measurement": "ORR", "setting": "ROS1-positive NSCLC [5]; [10]", "result": 55.8, "unit": "%"}, {"measurement": "median DOR", "setting": "ROS1-positive NSCLC [5]; [10]", "result": 16.6, "unit": "months"}, {"measurement": "median PFS", "setting": "ROS1-positive NSCLC [5]; [10]", "result": 9.7, "unit": "months"}, {"measurement": "resistance or activity with L2086F", "setting": "ROS1^L2086F", "result": "cross-resistance"}]}
{"smiles": "C[C@H]1CNC(=O)c2cnn3ccc(nc23)N[C@H](C)c2cc(F)ccc2O1", "note": "[Repotrectinib, repotrectinib]", "values": [{"measurement": "Notable AEs: dizziness", "setting": "ROS1-positive NSCLC [3]", "result": 58, "unit": "%"}, {"measurement": "Notable AEs: dysgeusia", "setting": "ROS1-positive NSCLC [3]", "result": 50, "unit": "%"}, {"measurement": "Notable AEs: paresthesia", "setting": "ROS1-positive NSCLC [3]", "result": 30, "unit": "%"}, {"measurement": "Discontinuation for AEs (%)", "setting": "ROS1-positive NSCLC [3]; WCLC 2025 Abstract 4540", "result": 7, "unit": "%"}, {"measurement": "Main Grade ≥ 3 AEs: anemia", "setting": "ROS1-positive NSCLC [3]; grade ≥ 3", "result": 4, "unit": "%"}, {"measurement": "Main Grade ≥ 3 AEs: dizziness", "setting": "ROS1-positive NSCLC [3]; grade ≥ 3", "result": 3, "unit": "%"}, {"measurement": "TKI-Naive ORR (%)", "setting": "ROS1-positive NSCLC [1]", "result": 79, "unit": "%"}, {"measurement": "mPFS (Months)", "setting": "ROS1-positive NSCLC [1]", "result": 35.7, "unit": "Months"}, {"measurement": "IC-ORR (%)", "setting": "ROS1-positive NSCLC [1]", "result": "89 ^d %"}, {"measurement": "resistance or sensitivity with ROS1^G2032R", "setting": "ROS1^G2032R", "result": "some sensitivity"}, {"measurement": "treatment discontinuation due to AEs", "setting": "[6]", "result": 7, "unit": "%"}, {"measurement": "response rate", "setting": "[6]; 17 patients harboring ROS1^G2032R", "result": 59, "unit": "%"}, {"measurement": "dizziness", "setting": "[6]; AEs, mostly grade 1–2", "result": 58, "unit": "%"}, {"measurement": "dysgeusia", "setting": "[6]; AEs, mostly grade 1–2", "result": 50, "unit": "%"}, {"measurement": "paresthesia", "setting": "[6]; AEs, mostly grade 1–2", "result": 30, "unit": "%"}, {"measurement": "ORR", "setting": "[6]; [11]", "result": 79, "unit": "%"}, {"measurement": "median DOR", "setting": "[6]; [11]", "result": 34.1, "unit": "months"}, {"measurement": "median PFS", "setting": "[6]; [11]", "result": 35.7, "unit": "months"}, {"measurement": "intracranial response rate", "setting": "[6]; TKI-naïve, measurable BMs at baseline", "result": 89, "unit": "%"}, {"measurement": "ORR", "setting": "[6]; [12]", "result": 38, "unit": "%"}, {"measurement": "median PFS", "setting": "[6]; [12]", "result": 9, "unit": "months"}, {"measurement": "ORR if G2032R Mutation (%)", "setting": "ROS1-positive NSCLC [4]; TKI-pretreated patients with G2032R", "result": 59, "unit": "%"}, {"measurement": "IC-ORR (%)", "setting": "ROS1-positive NSCLC [4]", "result": 38, "unit": "%"}, {"measurement": "TKI-Pretreated ORR (%)", "setting": "ROS1-positive NSCLC [4]", "result": 38, "unit": "%"}, {"measurement": "mPFS (Months)", "setting": "ROS1-positive NSCLC [4]", "result": 9.0, "unit": "Months"}, {"measurement": "inhibitory activity against ROS1^G2032R and D2033N mutations", "setting": "[7]", "result": "potent inhibitory activity"}, {"measurement": "resistance or activity with L2086F", "setting": "ROS1^L2086F", "result": "cross-resistance"}]}
